Consider ten molecules from ChEMBL document CHEMBL1201862, “PubChem BioAssay data set” (2004).

Common to all, as to experiment: inhibition of tumour cell growth, NCI panel, 48 h
In assay [1] the test system is ACHN.
Assay [2] concerns DU-145.
Assay [3] has as its system HL-60.
Assay [4] deals with HT-29.
Assay [5] has as its system Hs-578T.
For assay [6], the system named is IGROV-1.
Assay [7] concerns KM12.
The subject of assay [8] is LOX IMVI.
Assay [9] concerns M14.
Assay [10] has as its system MCF7.
In assay [11] the test system is MDA-N.
The test system of assay [12] is MOLT-4.
Assay [13] deals with OVCAR-3.
The test system of assay [14] is RPMI-8226.
The test system of assay [15] is SF-268.
In assay [16] the test system is SF-295.
Assay [17] has as its system SK-MEL-28.
Assay [18] has as its system SK-MEL-2.
Assay [19] has as its system SNB-75.
Assay [20] relates to SW-620.

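Growth conditions: 96-well plates. Treatment: test compound, 48 hours, 5 concentrations. Analysis: linear interpolation between bracketing concentrations; unreached endpoints set to highest concentration. GI50: concentration for 50% inhibition of growth.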 Calls of active or inactive are those of the source. Rule as the data show it: active = GI50 up to about 1.1 µM and inactive = higher. Bounds are passed on as bounds.

Turning to `CC1=CC=C2c3ccccc3C=CN2C(=O)C1`, the GI50 in [1] was 62.5 µM (inactive); in assay [2], 52 µM (inactive); in assay [3], 16.9 µM (inactive); in [4] it was 51.4 µM (inactive); in assay [5], 35.6 µM (inactive); in [6], > 100 µM (inactive). Moreover, the GI50 in assay [7] is 36.3 µM (inactive); in assay [8], 40.9 µM (inactive); in assay [9], 62.1 µM (inactive); in [10], 45.3 µM (inactive); in [11], 37.2 µM (inactive); in assay [12] it was 25.6 µM (inactive). The GI50 was 95.3 µM (inactive) in [13]; 25.7 µM (inactive) in assay [14]; 60.3 µM (inactive) in [15]; > 100 µM (inactive) in [16]; 90.4 µM (inactive) in [17]; 22.4 µM (inactive) in assay [18]. For the same molecule, the GI50 in [19] is 38.4 µM (inactive); in assay [20], 49.8 µM (inactive).

For `O=[N+]([O-])c1cc2oc(CSc3ccccc3)nc2cc1Cl`, the GI50 was 59.7 µM (inactive) in assay [1]; 37.7 µM (inactive) in [2]; 30.3 µM (inactive) in assay [3]; 28.1 µM (inactive) in assay [4]; 51.6 µM (inactive) in assay [5]; 33.9 µM (inactive) in assay [6]. Moreover, the GI50 is 32 µM (inactive) in assay [7]; 35.3 µM (inactive) in [8]; 32.9 µM (inactive) in assay [9]; 42.8 µM (inactive) in [10]; 35 µM (inactive) in assay [11]; 22.3 µM (inactive) in assay [12]. Besides, the GI50 is 30 µM (inactive) in assay [13]; 40.9 µM (inactive) in assay [14]; 58.7 µM (inactive) in [15]; 28.2 µM (inactive) in assay [16]; 35.2 µM (inactive) in assay [17]; 26 µM (inactive) in [18]. Moreover, the values for the GI50 in assay [19] and in assay [20] were 26.1 µM (inactive) and 43.9 µM (inactive), respectively.

Consider `COc1ccc(/C=C/C(=O)c2nc3ccccc3[nH]2)cc1`, for which the GI50 was 15.1 µM (inactive) in assay [1]; 17.3 µM (inactive) in assay [2]; 9.79 µM (inactive) in [3]; 7.03 µM (inactive) in assay [4]; 21.3 µM (inactive) in assay [5]; 6.07 µM (inactive) in assay [6]. The GI50 is 4.62 µM (inactive) in [7]; 9.91 µM (inactive) in [8]; 20.3 µM (inactive) in assay [9]; 8.38 µM (inactive) in assay [10]; 11.9 µM (inactive) in [11]; 18 µM (inactive) in assay [12]. For the same molecule, the GI50 in [13] is 17.8 µM (inactive); in [14], 3.8 µM (inactive); in [15], 15.2 µM (inactive); in assay [16], 21 µM (inactive); in [17], 24.5 µM (inactive); in assay [18] it was 28.6 µM (inactive). The figures for the GI50 in assay [19] and in [20] were 19.8 µM (inactive) and 13.5 µM (inactive), respectively.

Turning to `O=C(/C=C\c1ccccc1)Oc1ccc(/C=C2\CCCCC2=O)cc1`, the GI50 in assay [1] is 37.2 µM (inactive); in assay [2], > 100 µM (inactive); in [3], 14.9 µM (inactive); in [4], 17.9 µM (inactive); in assay [5], 61 µM (inactive); in [6] it was 37.8 µM (inactive). Further, the GI50 in assay [7] was 44 µM (inactive); in assay [8], 60.4 µM (inactive); in assay [9] it was 40.6 µM (inactive); in [10], 39.5 µM (inactive); in assay [11], 33.3 µM (inactive); in assay [12] it was 0.955 µM (active). Moreover, the GI50 in assay [13] was 72.3 µM (inactive); in assay [14], 21.5 µM (inactive); in assay [15] it was 25.2 µM (inactive); in [16] it was 41.2 µM (inactive); in [17], 2.18 µM (inactive); in assay [18], 39.2 µM (inactive). For the same molecule, the values for the GI50 in [19] and in assay [20] were > 100 µM (inactive) and 40.3 µM (inactive), respectively.

Regarding `CCOC(=O)CCC(NC(=O)c1ccc(OCc2ccc3nc(OC)c(OC)nc3c2)cc1)C(=O)OCC` (stereo not given), the GI50 in assay [1] is 32.9 µM (inactive); in assay [2], 69.5 µM (inactive); in assay [3], 31.7 µM (inactive); in assay [4], > 100 µM (inactive); in assay [5], 33.9 µM (inactive); in [6] it was 55.8 µM (inactive). The GI50 was > 100 µM (inactive) in assay [7]; 80 µM (inactive) in [8]; 21.9 µM (inactive) in assay [9]; 35.1 µM (inactive) in assay [10]; 24 µM (inactive) in [11]; 22.7 µM (inactive) in assay [12]. Besides, the GI50 in assay [13] is 20.2 µM (inactive); in assay [14], 70.8 µM (inactive); in assay [15] it was 57.7 µM (inactive); in assay [16], 59.4 µM (inactive); in [17], 44.6 µM (inactive); in assay [18] it was 23.3 µM (inactive). For the same molecule, the results for the GI50 in assay [19] and in assay [20] were 52.6 µM (inactive) and > 100 µM (inactive), respectively.

For `CC(C)C(OC(=O)c1ccc(NCC2=CC(=O)C=CC2=O)cc1)C(C)C`, the GI50 is 9.1 µM (inactive) in [1]; 18.4 µM (inactive) in assay [2]; 1.25 µM (inactive) in assay [3]; 10.7 µM (inactive) in [4]; 3.68 µM (inactive) in assay [5]; 1.81 µM (inactive) in assay [6]. For the same molecule, the GI50 in assay [7] is 11.5 µM (inactive); in assay [8], 5.15 µM (inactive); in [9], 6.52 µM (inactive); in assay [10] it was 7.93 µM (inactive); in [11], 5.2 µM (inactive); in assay [12], 2.01 µM (inactive). Moreover, the GI50 was 4.12 µM (inactive) in assay [13]; 3.15 µM (inactive) in assay [14]; 12.1 µM (inactive) in [15]; 13.2 µM (inactive) in assay [16]; 4.05 µM (inactive) in assay [17]; 11.6 µM (inactive) in assay [18]. Also, the GI50 in assay [19] was 4.35 µM (inactive); in assay [20] it was 6.76 µM (inactive).

In the case of `CN(c1ccccc1Cl)S(=O)(=O)c1ccccc1`, the GI50 was > 100 µM (inactive) in [1]; > 100 µM (inactive) in assay [2]; 14.6 µM (inactive) in assay [3]; > 100 µM (inactive) in assay [4]; 68.5 µM (inactive) in [5]; > 100 µM (inactive) in [6]. Also, the GI50 is > 100 µM (inactive) in assay [7]; > 100 µM (inactive) in [8]; > 100 µM (inactive) in assay [9]; > 100 µM (inactive) in assay [10]; > 100 µM (inactive) in assay [11]; 45 µM (inactive) in [12]. For the same molecule, the GI50 in assay [13], in [14], in assay [15], in assay [16], in [17] and in assay [18] was > 100 µM (inactive) throughout. The GI50 in [19] and in assay [20] was > 100 µM (inactive) throughout.

As to `O=C(CC1(O)C(=O)Nc2c(Cl)ccc(Cl)c21)c1ccco1` (stereo not given), the GI50 was 20.5 µM (inactive) in [1]; 40.3 µM (inactive) in assay [2]; 14.7 µM (inactive) in [3]; 22.4 µM (inactive) in assay [4]; 26 µM (inactive) in assay [5]; 18.3 µM (inactive) in [6]. Moreover, the GI50 is 27 µM (inactive) in assay [7]; 10.9 µM (inactive) in assay [8]; 14.5 µM (inactive) in assay [9]; 14.9 µM (inactive) in assay [10]; 3.63 µM (inactive) in assay [11]; 24.9 µM (inactive) in assay [12]. Further, the GI50 in assay [13] was 13.5 µM (inactive); in assay [14], 16.8 µM (inactive); in assay [15], 25.4 µM (inactive); in [16], 20.1 µM (inactive); in assay [17], 19.5 µM (inactive); in assay [18], 26.1 µM (inactive). Also, the GI50 in assay [19] was 27 µM (inactive); in assay [20], 20.1 µM (inactive).

On to `CC1CCC2C(C)C3C(CC4C5CC=C6CC(OC7OC(CO)C(O)C(OC8OC(CO)C(O)C(O)C8O)C7OC7OC(C)C(O)C(O)C7O)CCC6(C)C5CCC43C)N2C1` (stereo not given), for which the GI50 was 8.89 µM (inactive) in assay [1]; 18.9 µM (inactive) in assay [2]; 8.24 µM (inactive) in assay [3]; 12 µM (inactive) in [4]; 13.7 µM (inactive) in assay [5]; 12.4 µM (inactive) in assay [6]. For the same molecule, the GI50 in assay [7] was 14.8 µM (inactive); in assay [8], 15 µM (inactive); in assay [9], 4.67 µM (inactive); in [10], 13.8 µM (inactive); in assay [11], 10.7 µM (inactive); in assay [12], 28.6 µM (inactive). The GI50 in assay [13] was 17.4 µM (inactive); in assay [14] it was 19.9 µM (inactive); in [15], 15.9 µM (inactive); in assay [16] it was 10.2 µM (inactive); in assay [17], 7.94 µM (inactive); in [18] it was 19.5 µM (inactive). Moreover, the GI50 in assay [19] is 9.57 µM (inactive); in assay [20], 15.6 µM (inactive).

`CC(C)/C(Cl)=N\OC(=O)Nc1ccc(S(N)(=O)=O)cc1`: the GI50 was 13.9 µM (inactive) in assay [1]; 17.9 µM (inactive) in assay [2]; 1.89 µM (inactive) in assay [3]; 22.4 µM (inactive) in [4]; 25.2 µM (inactive) in assay [5]; 17.5 µM (inactive) in assay [6]. Moreover, the GI50 is 18.4 µM (inactive) in [7]; 2.89 µM (inactive) in [8]; 8.13 µM (inactive) in assay [9]; 12.1 µM (inactive) in [10]; 18.2 µM (inactive) in assay [11]; 2.32 µM (inactive) in [12]. Besides, the GI50 in assay [13] was 14.3 µM (inactive); in assay [14] it was 2.16 µM (inactive); in [15], 23.9 µM (inactive); in [16] it was 15.7 µM (inactive); in [17], 16.2 µM (inactive); in assay [18] it was 18.7 µM (inactive). Also, the figures for the GI50 in assay [19] and in assay [20] were 9.33 µM (inactive) and 1.86 µM (inactive), respectively.
